From publication PMC8028158 (ACS Omega, 2021)
“Also recorded” adds a separate entry of the source.

What was measured:
[1] = molecular target: T1, mouse TRPC7 (Mus musculus, UniProt Q9WVC5); assay: Fluorescence Ca2+ assay in TRPC7-HEK293 cells; type: cell-based; details: induced by 10 μM HDM
T1 sequence (Q9WVC5 1-862): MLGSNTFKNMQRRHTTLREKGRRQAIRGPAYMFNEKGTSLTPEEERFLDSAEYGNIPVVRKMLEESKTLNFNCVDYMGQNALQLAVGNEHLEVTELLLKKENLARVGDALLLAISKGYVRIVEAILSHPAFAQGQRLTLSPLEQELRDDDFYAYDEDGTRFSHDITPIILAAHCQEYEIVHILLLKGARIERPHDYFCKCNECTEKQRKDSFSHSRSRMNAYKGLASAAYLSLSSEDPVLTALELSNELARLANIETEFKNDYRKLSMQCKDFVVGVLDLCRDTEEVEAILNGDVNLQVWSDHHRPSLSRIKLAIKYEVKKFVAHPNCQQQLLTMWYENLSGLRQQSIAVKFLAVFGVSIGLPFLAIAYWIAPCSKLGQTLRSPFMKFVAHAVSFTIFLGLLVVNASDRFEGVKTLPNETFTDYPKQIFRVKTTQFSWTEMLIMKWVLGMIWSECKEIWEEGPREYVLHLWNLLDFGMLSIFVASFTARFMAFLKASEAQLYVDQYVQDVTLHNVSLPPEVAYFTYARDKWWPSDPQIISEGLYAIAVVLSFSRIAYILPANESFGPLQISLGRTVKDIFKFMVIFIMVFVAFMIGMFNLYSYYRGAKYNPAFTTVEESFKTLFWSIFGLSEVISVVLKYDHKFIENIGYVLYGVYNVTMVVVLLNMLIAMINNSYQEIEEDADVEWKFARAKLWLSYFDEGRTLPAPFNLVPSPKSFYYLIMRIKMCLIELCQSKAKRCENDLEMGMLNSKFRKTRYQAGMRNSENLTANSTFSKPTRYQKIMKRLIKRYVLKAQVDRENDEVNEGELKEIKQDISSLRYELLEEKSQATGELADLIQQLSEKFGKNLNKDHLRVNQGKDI

[2] = molecular target: TRPM8 (Homo sapiens, UniProt Q7Z2W7); assay: Selectivity Ca2+ assay in TRPM8-expressing HEK293 cells; type: cell-based; details: 1s 50 μM; Fluo-8
Chain of TRPM8 (Q7Z2W7 whole entry, species assumed): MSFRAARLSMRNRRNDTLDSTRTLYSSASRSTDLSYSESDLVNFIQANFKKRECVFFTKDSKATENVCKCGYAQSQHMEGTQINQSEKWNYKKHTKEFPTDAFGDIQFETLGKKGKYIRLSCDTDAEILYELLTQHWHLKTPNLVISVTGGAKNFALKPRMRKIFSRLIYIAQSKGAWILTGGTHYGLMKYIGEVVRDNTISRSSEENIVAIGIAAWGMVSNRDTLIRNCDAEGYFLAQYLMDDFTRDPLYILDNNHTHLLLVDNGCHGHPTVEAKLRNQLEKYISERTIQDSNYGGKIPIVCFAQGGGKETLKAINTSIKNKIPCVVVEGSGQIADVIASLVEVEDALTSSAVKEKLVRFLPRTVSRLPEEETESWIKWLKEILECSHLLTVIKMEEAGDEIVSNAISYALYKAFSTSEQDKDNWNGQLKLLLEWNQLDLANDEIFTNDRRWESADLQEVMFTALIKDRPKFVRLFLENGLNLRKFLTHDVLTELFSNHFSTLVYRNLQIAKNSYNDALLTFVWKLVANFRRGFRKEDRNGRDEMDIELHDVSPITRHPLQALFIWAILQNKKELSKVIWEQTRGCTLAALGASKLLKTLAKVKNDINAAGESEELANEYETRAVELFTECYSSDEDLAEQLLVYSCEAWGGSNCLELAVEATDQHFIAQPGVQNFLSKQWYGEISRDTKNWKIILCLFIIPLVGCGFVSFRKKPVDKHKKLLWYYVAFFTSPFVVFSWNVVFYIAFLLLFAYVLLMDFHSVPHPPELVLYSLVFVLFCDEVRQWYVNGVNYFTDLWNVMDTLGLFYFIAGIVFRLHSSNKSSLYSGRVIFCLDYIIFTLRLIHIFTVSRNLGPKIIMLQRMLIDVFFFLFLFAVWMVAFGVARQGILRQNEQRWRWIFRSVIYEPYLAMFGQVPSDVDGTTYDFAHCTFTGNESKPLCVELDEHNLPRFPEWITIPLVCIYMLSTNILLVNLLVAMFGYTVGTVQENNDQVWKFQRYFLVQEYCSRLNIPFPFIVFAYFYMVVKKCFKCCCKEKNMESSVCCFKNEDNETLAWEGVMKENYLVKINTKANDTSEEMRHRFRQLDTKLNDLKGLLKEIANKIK

COc1cccc2sc(N(CCN(C)C)C(=O)c3ccc4c(c3)CCCC4)nc12 [Compound 1s, N-(2-(dimethylamino)ethyl)-N-(4-methoxybenzo[d]thiazol-2-yl)-5,6,7,8-tetrahydronaphthalene-2-carboxamide]
Effect on Ca2+ response in TRPC7-HEK293 cells [1]: almost did not cause a discernible Ca^2+ response; also recorded: little or no effect; also recorded: no effect | Effect on agonist-induced Ca2+ response, TRPM8 [2]: did not significantly affect
